51 molecules from ChEMBL document CHEMBL3727366, “Heterocyclic compounds for the treatment of stress-related conditions” (2013) can be followed below.

Structures are written as SMILES. The source made the active and inactive calls. No rule for the calls is given here.

In assay [1] the test system is Rattus norvegicus. Put plainly: Inhibition of tail-pinch stress-induced feeding behavior in Wistar rat at 5 mL/kg, po dosed 1 or 2 hrs before tail-pinch stimulus. It counts as functional, organism-based.
The subject of assay [2] is Rattus norvegicus. Put plainly: Inhibition of restraint stress-induced defecation in Wistar rat at 5 mL/kg, po dosed 1 or 2 hrs before restraint stress. It counts as functional, organism-based.

As for `COn1c(NCc2ccc(C(F)(F)F)cc2)nc2c(c1=O)CN(C(=O)c1ccc(Cl)cc1)CC2`, the inhibition entry in assay [1] and in assay [2] was “Active” each time.
For the molecule `CC#CCn1c(N[C@@H](C)c2ccc(C(F)(F)F)cc2)nc2c(c1=O)CN(C(=O)c1ccc(OC)cc1)CC2`, the inhibition entry in assay [1] and in assay [2] was “Active” each time.
With `CC#CCn1c(N[C@@H](C)c2ccc(C(F)(F)F)cc2)nc2c(c1=O)CN(C(=O)c1ccc(C#N)cc1F)CC2`, the inhibition result in assay [1] and in assay [2] was “Active” each time.
`COn1c(N[C@@H](C)c2ccc(C(F)(F)F)cc2)nc2c(c1=O)CN(C(=O)c1ccc3c(c1)CCC(=O)N3C)CC2`: the inhibition result in assay [1] and in assay [2] was “Active” in each case.
`COn1c(N[C@@H](C)c2ccc(C(F)(F)F)cc2)nc2c(c1=O)CN(C(=O)c1ccc(Cl)c(C)c1)CC2`: the inhibition entry in assay [1] and in assay [2] was “Active” each time.
With `C#CCCn1c(N[C@@H](C)c2ccc(C(F)(F)F)cc2)nc2c(c1=O)CN(C(=O)c1ccc(C#N)cc1)CC2`, the inhibition result in assay [1] and in assay [2] was “Active” each time.
As to `C[C@H](Nc1nc2c(c(=O)n1N(C)C)CN(C(=O)c1ccc(Cl)cc1)CC2)c1ccc(C(F)(F)F)cc1`, the inhibition result in assay [1] and in assay [2] was “Active” in each case.
As for `COn1c(N[C@@H](C)c2ccc(C(F)(F)F)cc2)nc2c(c1=O)CN(C(=O)c1ccc(C#N)cc1F)CC2`, the inhibition result in assay [1] and in assay [2] was “Active” in each case.
Consider `C#CCCn1c(N[C@@H](C)c2ccc(C(F)(F)F)cc2)nc2c(c1=O)CN(C(=O)c1ccc(-c3cnco3)cc1)CC2`, for which the inhibition entry in assay [1] and in assay [2] was “Active” in each case.
Take `C[C@H](Nc1nc2c(c(=O)n1N1CCOCC1)CN(C(=O)c1ccc(C#N)cc1)CC2)c1ccc(C(F)(F)F)cc1`: the inhibition entry in assay [1] and in assay [2] was “Active” each time.
As for `COn1c(NC(CCC(F)(F)F)c2ccc(Cl)cc2)nc2c(c1=O)CN(C(=O)c1ccc(Cl)cc1)CC2` (configuration not stated), the inhibition entry in assay [1] and in assay [2] was “Active” throughout.
For the molecule `C[C@H](Nc1nc2c(c(=O)n1N(C)C)CN(C(=O)c1c(F)cc(F)cc1F)CC2)c1ccc(C(F)(F)F)cc1`, the inhibition result in assay [1] and in assay [2] was “Active” throughout.
`CC#CCn1c(N[C@@H](C)c2ccc(C(F)(F)F)cc2)nc2c(c1=O)CN(C(=O)c1ccc3c(c1)OCO3)CC2`: the inhibition entry in assay [1] and in assay [2] was “Active” in each case.
As for `C[C@H](Nc1nc2c(c(=O)n1N(C)C)CN(C(=O)COc1ccc(Cl)cc1)CC2)c1ccc(C(F)(F)F)cc1`, the inhibition result in assay [1] and in assay [2] was “Active” each time.
Take `C#CCCn1c(N[C@@H](C)c2ccc(C(F)(F)F)cc2)nc2c(c1=O)CN(C(=O)c1ccc(-n3ccnc3)cc1)CC2`: the inhibition entry in assay [1] and in assay [2] was “Active” in each case.
For the molecule `CC#CCn1c(N[C@@H](C)c2ccc(C(F)(F)F)cc2)nc2c(c1=O)CN(C(=O)c1ccc3c(c1)CCC(=O)N3)CC2`, the inhibition result in assay [1] and in assay [2] was “Active” throughout.
Regarding `COn1c(N2CCCC2c2ccc(C(F)(F)F)cc2)nc2c(c1=O)CN(C(=O)c1ccc(Cl)cc1)CC2` (configuration not stated), the inhibition entry in assay [1] and in assay [2] was “Active” in each case.
With `C#CCn1c(N[C@@H](C)c2ccc(Cl)cc2)nc2c(c1=O)CN(C(=O)c1ccc(Cl)cc1)CC2`, the inhibition entry in assay [1] and in assay [2] was “Active” in each case.
`CC#CCn1c(N[C@@H](C)c2ccc(C(F)(F)F)cc2)nc2c(c1=O)CN(C(=O)c1cnc3ccccc3c1)CC2`: the inhibition entry in assay [1] and in assay [2] was “Active” in each case.
`COn1c(N[C@@H](C)c2ccc(C(F)(F)F)cc2)nc2c(c1=O)CN(C(=O)c1ccc(C#N)cc1)CC2`: the inhibition result in assay [1] and in assay [2] was “Active” in each case.
Consider `C=Cc1ccc(C(=O)N2CCc3nc(N[C@@H](C)c4ccc(C(F)(F)F)cc4)n(OC)c(=O)c3C2)cc1`, for which the inhibition entry in assay [1] and in assay [2] was “Active” throughout.
In the case of `C#CCCn1c(N[C@@H](C)c2ccc(C(F)(F)F)cc2)nc2c(c1=O)CN(C(=O)c1ccc(C)cc1)CC2`, the inhibition entry in assay [1] and in assay [2] was “Active” each time.
As to `COn1c(N[C@@H](C)c2ccc(C(F)(F)F)cc2)nc2c(c1=O)CN(C(=O)c1cc3cc(Cl)ccc3o1)CC2`, the inhibition entry in assay [1] and in assay [2] was “Active” throughout.
With `C#CCn1c(N[C@@H](C)c2ccc(C(F)(F)F)cc2)nc2c(c1=O)CN(C(=O)c1cccc(C#N)c1)CC2`, the inhibition entry in assay [1] and in assay [2] was “Active” each time.
For `CC#CCn1c(N[C@@H](C)c2ccc(C(F)(F)F)cc2)nc2c(c1=O)CN(C(=O)c1ccc(-n3ccnc3)cc1)CC2`, the inhibition entry in assay [1] and in assay [2] was “Active” in each case.
Take `CC#CCn1c(N[C@@H](C)c2ccc(C(F)(F)F)cc2)nc2c(c1=O)CN(C(=O)c1ccc(C#N)cc1)CC2`: the inhibition result in assay [1] and in assay [2] was “Active” in each case.
As to `CC#CCn1c(N[C@@H](C)c2ccc(C(F)(F)F)cc2)nc2c(c1=O)CN(C(=O)c1ccc(Cl)cc1)CC2`, the inhibition entry in assay [1] and in assay [2] was “Active” in each case.
In the case of `CC#CCn1c(N[C@@H](C)c2ccc(C(F)(F)F)cc2)nc2c(c1=O)CN(C(=O)c1ccc(C)c(C)c1)CC2`, the inhibition entry in assay [1] and in assay [2] was “Active” throughout.
As for `COn1c(N[C@@H](C)c2ccc(C(F)(F)F)cc2)nc2c(c1=O)CN(C(=O)c1ccc(OC(F)(F)F)cc1)CC2`, the inhibition result in assay [1] and in assay [2] was “Active” in each case.
For the molecule `C[C@H](Nc1nc2c(c(=O)n1N(C)C)CN(C(=O)c1ccc(C#N)cc1F)CC2)c1ccc(C(F)(F)F)cc1`, the inhibition entry in assay [1] and in assay [2] was “Active” throughout.
On to `C#CCCn1c(N[C@@H](C)c2ccc(C(F)(F)F)cc2)nc2c(c1=O)CN(C(=O)c1ccc(C#N)cc1F)CC2`, for which the inhibition result in assay [1] and in assay [2] was “Active” throughout.
As for `C[C@H](Nc1nc2c(c(=O)n1N(C)C)CN(C(=O)COc1ccc(Cl)cc1)CC2)c1ccc(Cl)cc1`, the inhibition result in assay [1] and in assay [2] was “Active” throughout.
As for `CC#CCn1c(N[C@@H](C)c2ccc(C(F)(F)F)cc2)nc2c(c1=O)CN(C(=O)c1ccc3cccnc3c1)CC2`, the inhibition result in assay [1] and in assay [2] was “Active” each time.
`C#CCCn1c(N[C@@H](C)c2ccc(C(F)(F)F)cc2)nc2c(c1=O)CN(C(=O)c1ccc(C(=O)N(C)C)cc1)CC2`: the inhibition entry in assay [1] and in assay [2] was “Active” throughout.
On to `COn1c(N[C@@H](C)c2ccc(Cl)cc2)nc2c(c1=O)CN(C(=O)c1cc3cccnc3s1)CC2`, for which the inhibition result in assay [1] and in assay [2] was “Active” throughout.
`C#CCn1c(N[C@@H](C)c2ccc(C(F)(F)F)cc2)nc2c(c1=O)CN(C(=O)c1ccc(C#N)cc1F)CC2`: the inhibition entry in assay [1] and in assay [2] was “Active” throughout.
For the molecule `C[C@H](Nc1nc2c(c(=O)n1N(C)C)CN(C(=O)c1ccc(Cl)cc1)CC2)c1ccc(Cl)cc1`, the inhibition result in assay [1] and in assay [2] was “Active” in each case.
Consider `COn1c(N[C@@H](C)c2ccc(C(F)(F)F)cc2)nc2c(c1=O)CN(C(=O)c1cnc3ccccc3c1)CC2`, for which the inhibition result in assay [1] and in assay [2] was “Active” throughout.
Consider `CC#CCn1c(N[C@@H](C)c2ccc(C(F)(F)F)cc2)nc2c(c1=O)CN(C(=O)c1cc3ccccn3n1)CC2`, for which the inhibition result in assay [1] and in assay [2] was “Active” throughout.
On to `CCC(Nc1nc2c(c(=O)n1OC)CN(C(=O)c1ccc(Cl)cc1)CC2)c1ccc(Cl)cc1` (configuration not stated), for which the inhibition entry in assay [1] and in assay [2] was “Active” each time.
For the molecule `C#CCCn1c(N[C@@H](C)c2ccc(C(F)(F)F)cc2)nc2c(c1=O)CN(C(=O)c1nc3ccccc3[nH]1)CC2`, the inhibition entry in assay [1] and in assay [2] was “Active” in each case.
For `COn1c(N[C@@H](C)c2ccc(C(F)(F)F)cc2)nc2c(c1=O)CN(C(=O)c1ccc(Cl)cc1)CC2`, the inhibition result in assay [1] and in assay [2] was “Active” each time.
As for `CC#CCn1c(N[C@@H](C)c2ccc(C(F)(F)F)cc2)nc2c(c1=O)CN(C(=O)c1ccc(-c3cnco3)cc1)CC2`, the inhibition result in assay [1] and in assay [2] was “Active” each time.
For `CCOc1ccc(C(=O)N2CCc3nc(N[C@@H](C)c4ccc(C(F)(F)F)cc4)n(OC)c(=O)c3C2)cc1`, the inhibition result in assay [1] and in assay [2] was “Active” each time.
Turning to `COn1c(N[C@@H](C)c2ccc(Cl)cc2)nc2c(c1=O)CN(C(=O)c1ccc(Cl)cc1)CC2`, the inhibition entry in assay [1] and in assay [2] was “Active” in each case.
With `COn1c(NC(c2ccc(Cl)cc2)C(C)C)nc2c(c1=O)CN(C(=O)c1ccc(Cl)cc1)CC2` (configuration not stated), the inhibition entry in assay [1] and in assay [2] was “Active” in each case.
With `COn1c(NCc2ccc(Cl)cc2)nc2c(c1=O)CN(C(=O)c1ccc(Cl)cc1)CC2`, the inhibition result in assay [1] and in assay [2] was “Active” in each case.
Turning to `C#CCn1c(N[C@@H](C)c2ccc(C(F)(F)F)cc2)nc2c(c1=O)CN(C(=O)c1ccc(Cl)cc1)CC2`, the inhibition result in assay [1] and in assay [2] was “Active” throughout.
For the molecule `C#CCn1c(N[C@@H](C)c2ccc(C(F)(F)F)cc2)nc2c(c1=O)CN(C(=O)c1c(F)cccc1F)CC2`, the inhibition entry in assay [1] and in assay [2] was “Active” in each case.
As to `COc1cc(Cl)ccc1C(=O)N1CCc2nc(N[C@@H](C)c3ccc(C(F)(F)F)cc3)n(OC)c(=O)c2C1`, the inhibition result in assay [1] and in assay [2] was “Active” in each case.
Regarding `CCOc1ccc(CNc2nc3c(c(=O)n2OC)CN(C(=O)c2ccc(C#N)cc2F)CC3)cc1`, the inhibition result in assay [1] and in assay [2] was “Active” in each case.
